Target: T1, chicken gizzard smooth muscle myosin subfragment-1 chemically crosslinked to cardiac or skeletal actin (Gallus gallus, UniProt P10587)
T1 construct: chicken gizzard smooth muscle myosin subfragment-1; from tissue; host or cells: chicken gizzard
Experiment: Smooth muscle myosin ATPase dose response assay (pyruvate kinase/horseradish peroxidase/pyruvate oxidase-coupled, amplex red fluorescence)
Type: biochemical
Conditions: read-out: IC50 Arithmetic Mean
How it was run: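 Readout is amplex red signal from coupled ATPase of actin-crosslinked gizzard myosin S1 (0.15 mM ATP, 12 mM K-PIPES, pH 7.00). IC50 is the half-maximal activity point of a four-parameter Hill fit.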

T1 sequence (P02607 2-151): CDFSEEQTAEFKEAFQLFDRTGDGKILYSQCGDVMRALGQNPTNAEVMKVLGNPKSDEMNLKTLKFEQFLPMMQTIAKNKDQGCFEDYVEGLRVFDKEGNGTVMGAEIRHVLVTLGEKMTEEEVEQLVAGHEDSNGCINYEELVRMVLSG
T1 sequence (P10587 84-789): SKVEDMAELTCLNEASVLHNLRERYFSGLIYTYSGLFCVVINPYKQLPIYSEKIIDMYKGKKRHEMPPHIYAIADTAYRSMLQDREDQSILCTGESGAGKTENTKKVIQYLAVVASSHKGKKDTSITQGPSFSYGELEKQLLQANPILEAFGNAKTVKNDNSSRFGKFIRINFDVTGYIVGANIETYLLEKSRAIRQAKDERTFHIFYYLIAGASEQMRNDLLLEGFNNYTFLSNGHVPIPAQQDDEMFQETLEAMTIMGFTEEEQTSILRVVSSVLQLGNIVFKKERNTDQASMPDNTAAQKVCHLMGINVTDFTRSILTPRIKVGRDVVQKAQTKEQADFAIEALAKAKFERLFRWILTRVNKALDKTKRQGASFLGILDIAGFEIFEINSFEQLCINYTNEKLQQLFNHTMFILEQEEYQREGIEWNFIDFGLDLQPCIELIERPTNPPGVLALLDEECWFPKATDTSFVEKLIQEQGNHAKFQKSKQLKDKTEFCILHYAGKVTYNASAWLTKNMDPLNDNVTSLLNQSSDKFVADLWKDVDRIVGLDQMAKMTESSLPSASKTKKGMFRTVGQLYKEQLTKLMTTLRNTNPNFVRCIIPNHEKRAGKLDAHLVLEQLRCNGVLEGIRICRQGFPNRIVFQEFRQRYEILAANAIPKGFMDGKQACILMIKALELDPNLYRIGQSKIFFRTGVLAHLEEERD

IC50 [nM]	Compound
7190	O=C(Nc1ccccn1)c1ccc(-c2ccccc2)nc1NCCc1ccccn1 [{6-phenyl-2-[(2-(2-pyridyl)ethyl)amino](3-pyridyl)}-N-(2-pyridyl)carboxamide]
758	N#Cc1ccccc1-c1ccc(C(=O)NCC2CCCN2CCN)c(NCCc2cccc(F)c2)n1 (stereo not shown) [N-{[1-(2-aminoethyl)pyrrolidin-2-yl]methyl}(6-(2-cyanophenyl)-2-{[2-(3-fluorophenyl)ethyl]amino}(3-pyridyl))carboxamide]
1120	CNC(=O)[C@H](CO)NC(=O)c1ccc(-c2ccccc2C#N)nc1NCCc1cccc(F)c1 [(2S)-2-[(6-(2-cyanophenyl)-2-{[2-(3-fluorophenyl)ethyl]amino}(3-pyridyl))carbonylamino]-3-hydroxy-N-methylpropanamide]
4900	O=C(NCc1ncco1)c1ccc(-c2ccccc2)nc1NCCc1ccccn1 [N-(1,3-oxazol-2-ylmethyl){6-phenyl-2-[(2-(2-pyridyl)ethyl)amino](3-pyridyl)}carboxamide]
603	Cn1cc(-c2ccc(C(=O)NCC3CCCCC(=O)N3)c(NCCc3cccc(F)c3)n2)cn1 (stereo not shown) [(2-{[2-(3-fluorophenyl)ethyl]amino}-6-(1-methylpyrazol-4-yl)(3-pyridyl))-N-[(7-oxoazaperhydroepin-2-yl)methyl]carboxamide]
1280	CN1CCN(C(=O)CN)[C@@H](CNC(=O)c2ccc(-c3ccccc3C#N)nc2NCCc2cccc(F)c2)C1 [N-{[(2S)-1-(2-aminoacetyl)-4-methylpiperazin-2-yl]methyl}(6-(2-cyanophenyl)-2-{[2-(3-fluorophenyl)ethyl]amino}(3-pyridyl))carboxamide]
5400	N#Cc1ccccc1-c1ccc(C(=O)N[C@@H](CCCN)C(N)=O)c(NCCc2cccc(F)c2)n1 [N-((1S)-4-amino-1-carbamoylbutyl)(6-(2-cyanophenyl)-2-{[2-(3-fluorophenyl)ethyl]amino}(3-pyridyl))carboxamide]
1200	CN(CCNC(=O)c1ccc(-c2ccccc2C#N)nc1NCCc1cccc(F)c1)C(=O)CCCN [4-amino-N-{2-[(6-(2-cyanophenyl)-2-{[2-(3-fluorophenyl)ethyl]amino}(3-pyridyl))carbonylamino]ethyl}-N-methylbutanamide]
2620	CC(=O)NCCCNC(=O)c1cc(F)c(-c2cnn(C)c2)nc1NCCc1cccc(F)c1 [N-{3-[(5-fluoro-2-{[2-(3-fluorophenyl)ethyl]amino}-6-(1-methylpyrazol-4-yl)-3-pyridyl)carbonylamino]propyl}acetamide]
10900	COC(=O)CNC[C@H](N)CNC(=O)c1ccc(-c2cnn(C)c2)nc1NCCc1cccc(F)c1 [methyl 2-({(2S)-2-amino-3-[(2-{[2-(3-fluorophenyl)ethyl]amino}-6-(1-methylpyrazol-4-yl)(3-pyridyl))carbonylamino]propyl}amino)acetate]
30600	O=C(NCc1cccnc1)c1ccc(-c2ccc(C(=O)NCc3cccnc3)c(NCCc3cccc(F)c3)n2)nc1NCCc1cccc(F)c1 [[2-{[2-(3-fluorophenyl)ethyl]amino}-6-(6-{[2-(3-fluorophenyl)ethyl]amino}-5-[N-(3-pyridylmethyl)carbamoyl](2-pyridyl))(3-pyridyl)]-N-(3-pyridylmethyl)carboxamide]
95	NCCCn1nccc1CNC(=O)c1ccc(-c2cn[nH]c2)nc1NCCc1cccc(F)c1 [N-{[1-(3-aminopropyl)pyrazol-5-yl]methyl}(2-{[2-(3-fluorophenyl)ethyl]amino}-6-pyrazol-4-yl(3-pyridyl))carboxamide]
3560	C[C@@H](CNC(=O)c1ccc(-c2ccccc2C#N)nc1NCCc1cccc(F)c1)NC(=O)CCN
6970	CN1CCN(C(=O)CN)C[C@@H]1CNC(=O)c1ccc(-c2ccccc2C#N)nc1NCCc1cccc(F)c1 [N-{[(2S)-4-(2-aminoacetyl)-1-methylpiperazin-2-yl]methyl}(6-(2-cyanophenyl)-2-{[2-(3-fluorophenyl)ethyl]amino}(3-pyridyl))carboxamide]
1060	NCc1ccc(CNC(=O)c2ccc(-c3ccccc3)nc2NCCc2cccc(F)c2)nc1 [N-{[5-(aminomethyl)(2-pyridyl)]methyl}(2-{[2-(3-fluorophenyl)ethyl]amino}-6-phenyl(3-pyridyl))carboxamide]
211	O=C(NCc1cccnc1)c1cc(F)c(-c2cn[nH]c2)nc1NCCn1cccn1 [{5-fluoro-6-pyrazol-4-yl-2-[(2-pyrazolylethyl)amino](3-pyridyl)}-N-(3-pyridylmethyl)carboxamide]
133	N#Cc1ccccc1-c1ccc(C(=O)NC[C@H]2CCCN2C(=O)CCCN)c(NCCC2=CCCCC2)n1 [N-{[(2R)-1-(4-aminobutanoyl)pyrrolidin-2-yl]methyl}{6-(2-cyanophenyl)-2-[(2-cyclohex-1-enylethyl)amino](3-pyridyl)}carboxamide]
2130	CN(C)C(n1cc(-c2ccc(C(=O)NC[C@H]3CCC(=O)N3CCCN)c(NCCc3cccc(F)c3)n2)cn1)=[N+](C)C
1240	CC(C)C[C@@H](N)CNC(=O)c1ccc(-c2ccccc2C#N)nc1NCCc1cccc(F)c1 [N-((2R)-2-amino-4-methylpentyl)(6-(2-cyanophenyl)-2-{[2-(3-fluorophenyl)ethyl]amino}(3-pyridyl))carboxamide]
2960	CNC(=O)CCCNC(=O)c1ccc(-c2ccccc2C#N)nc1NCCc1cccc(F)c1 [4-[(6-(2-cyanophenyl)-2-{[2-(3-fluorophenyl)ethyl]amino}(3-pyridyl))carbonylamino]-N-methylbutanamide]
119	Cc1csc(-c2ccc(C(=O)NCc3cccnc3)c(NCCc3cc(F)cc(F)c3)n2)c1 [(2-{[2-(3,5-difluorophenyl)ethyl]amino}-6-(4-methyl(2-thienyl))(3-pyridyl))-N-(3-pyridylmethyl)carboxamide]

Compound	IC50 [nM]
CC(C)(C)OC(=O)NCCCCC(=O)N1CCC[C@@H]1CNC(=O)c1ccc(-c2ccccc2C#N)nc1NCCc1cccc(F)c1 [N-[((2R)-1-{5-[(tert-butoxy)carbonylamino]pentanoyl}pyrrolidin-2-yl)methyl](6-(2-cyanophenyl)-2-{[2-(3-fluorophenyl)ethyl]amino}(3-pyridyl))carboxamide]	2940
Cn1cc(-c2nc(NCCc3cccc(F)c3)c(C(=O)NC[C@H]3CCCN3C(=O)CNC(=O)OC(C)(C)C)cc2F)cn1 [N-[((2R)-1-{2-[(tert-butoxy)carbonylamino]acetyl}pyrrolidin-2-yl)methyl](5-fluoro-2-{[2-(3-fluorophenyl)ethyl]amino}-6-(1-methylpyrazol-4-yl)(3-pyridyl))carboxamide]	625
CC(C)(C)OC(=O)NCC(=O)N1CCC[C@@H]1CNC(=O)c1cc(F)c(-c2cn[nH]c2)nc1NCCc1cccc(F)c1 [N-[((2R)-1-{2-[(tert-butoxy)carbonylamino]acetyl}pyrrolidin-2-yl)methyl](5-fluoro-2-{[2-(3-fluorophenyl)ethyl]amino}-6-pyrazol-4-yl(3-pyridyl))carboxamide]	1080
CC(C)(C)OC(=O)NCCCN1CCC[C@@H]1CNC(=O)c1ccc(-c2ccccc2C#N)nc1NCCc1cccc(F)c1 [N-[((2R)-1-{3-[(tert-butoxy)carbonylamino]propyl}pyrrolidin-2-yl)methyl](6-(2-cyanophenyl)-2-{[2-(3-fluorophenyl)ethyl]amino}(3-pyridyl))carboxamide]	1340

Source: patent publication US7932270B2 (Cytokinetics, Inc., priority 2006, dated 2011)
